Measurements reported in ChEMBL document CHEMBL4483862, “Open-source discovery of chemical leads for next-generation chemoprotective antimalarials” (2018).

Test system: Plasmodium berghei
Test: Luciferase/luciferin-expressing antifolate-resistant parasites were used to infect a culture of HepG2 cells that were pre-incubated with compounds. Infected hepatocytes emit light due to the luciferase reaction. Assay results are presented as the percent inhibition of light emission compared to control. […]
Assay type: functional
Conditions: sporozoite; for IC90: read-out: LUCIFERASE INFECTION ASSAY - IC90
[1] = read-out: LUCIFERASE INFECTION ASSAY - IC50

CC(=O)c1c(C)[nH]c(C(=O)C(C)Sc2nc3ccccc3o2)c1C (stereo not drawn)
IC50 (HEPG2TOX_HILL_SLOPE 2.15, HEPG2TOX_R_SQUARED 0.56, PBLUC_HILL_SLOPE 10.4, PBLUC_R_SQUARED 0.465, read-out: LUCIFERASE INFECTION ASSAY - IC50): 8.44 µM
IC90: > 10 µM

O=C(NC1CC1)c1ccc(-c2cnc3c(Nc4cccc(OC(F)(F)C(F)F)c4)nccn23)cc1
IC50 (HEPG2TOX_HILL_SLOPE 8.49, HEPG2TOX_R_SQUARED 0.235, PBLUC_HILL_SLOPE 3.35, PBLUC_R_SQUARED 0.643, read-out: LUCIFERASE INFECTION ASSAY - IC50): 1.29 µM
IC90: 2.49 µM

CC(=O)c1c(C)[nH]c(C(=O)OCC(=O)Nc2c(C)nn(-c3ccccc3)c2C)c1C
IC50 (PBLUC_HILL_SLOPE 2.08, PBLUC_R_SQUARED 0.0451, read-out: LUCIFERASE INFECTION ASSAY - IC50): > 10 µM
IC90: > 10 µM

NC(=O)c1ccc(-c2ccnc3n[nH]c(-c4cccc(F)c4)c23)cc1
IC50 (HEPG2TOX_HILL_SLOPE 2.67, HEPG2TOX_R_SQUARED 0.872, PBLUC_HILL_SLOPE 9.91, PBLUC_R_SQUARED 0.595, read-out: LUCIFERASE INFECTION ASSAY - IC50): 2.99 µM
IC90: 3.73 µM

COc1ccc(-c2csc3ncnc(N4CCN(c5ccccc5[N+](=O)[O-])CC4)c23)cc1
IC50 (HEPG2TOX_HILL_SLOPE 5.61, HEPG2TOX_R_SQUARED 0.324, PBLUC_HILL_SLOPE 1.94, 2.89, PBLUC_R_SQUARED 0.358, 0.293, read-out: LUCIFERASE INFECTION ASSAY - IC50): 6.64 µM
IC90: > 10 µM

CC1=C(C(=O)OCc2ccccc2)C(c2ccccc2OC(C)C)CC(=O)N1 (stereo not drawn)
IC50 (FFLUC_HILL_SLOPE 12.1, FFLUC_R_SQUARED 0.679, read-out: LUCIFERASE INFECTION ASSAY - IC50): > 8.7 µM
IC90: > 8.7 µM

Cc1cc(=O)[nH]c(SCC(=O)c2cc(C)n(-c3ccccc3)c2C)c1C#N
IC50 [1]: > 10 µM
IC90: > 10 µM

CC1CC(C)CN(C(=O)CN2CCN(CC(=O)Nc3ccc(N4CCCCCC4)cc3)CC2)C1 (stereo not drawn)
IC50 (PBLUC_HILL_SLOPE 1.09, PBLUC_R_SQUARED 0.619, read-out: LUCIFERASE INFECTION ASSAY - IC50): 3.56 µM
IC90: > 10 µM

COc1ccccc1NC(=O)NCc1nc(-c2ccccc2)c[nH]1
IC50 (HEPG2TOX_HILL_SLOPE 5.47, HEPG2TOX_R_SQUARED 0.951, PBLUC_HILL_SLOPE 7.77, PBLUC_R_SQUARED 0.194, read-out: LUCIFERASE INFECTION ASSAY - IC50): 3.84 µM
IC90: 5.1 µM

O=C(/C=C/c1cc([N+](=O)[O-])ccc1OC(F)F)N1CCN(C(c2ccccc2)c2ccccc2)CC1
IC50 [1]: > 10 µM
IC90: > 10 µM

O=C(Nc1ccc2c(c1)OC1(CCCC1)O2)N1CCN(c2ccc(O)cc2)CC1
IC50 (HEPG2TOX_HILL_SLOPE 12.8, HEPG2TOX_R_SQUARED 0.476, PBLUC_HILL_SLOPE 2.26, PBLUC_R_SQUARED 0.894, read-out: LUCIFERASE INFECTION ASSAY - IC50): 1.6 µM
IC90: 4.23 µM

CN(C)n1cccc1/C=C(\C#N)S(C)(=O)=O
IC50 [1]: > 13.8 µM
IC90: > 13.8 µM

N#CCCn1cc(/C=C(\C#N)c2nc3ccccc3[nH]2)c(-c2ccccc2)n1
IC50 [1]: > 10 µM
IC90: > 10 µM

FC(F)(F)c1ccnc(N2CCN(c3ncnc4scc(-c5ccccc5)c34)CC2)n1
IC50 [1]: > 7.46 µM
IC90: > 7.46 µM

CCN(CC)S(=O)(=O)c1ccc(NC(=O)c2ccccc2Nc2cccc(C(F)(F)F)c2)cc1
IC50 (FFLUC_HILL_SLOPE 1.74, FFLUC_R_SQUARED 0.823, read-out: LUCIFERASE INFECTION ASSAY - IC50): > 10 µM
IC90: > 10 µM

Cn1c(Nc2ccccc2)nc2cnc(Nc3ccc(Oc4ccccc4)cc3)cc21
IC50 (PBLUC_HILL_SLOPE 3.01, PBLUC_R_SQUARED 0.581, read-out: LUCIFERASE INFECTION ASSAY - IC50): 5.93 µM
IC90: > 10 µM

Cc1cc(C(=O)CSc2nnc(Cc3cccc4ccccc34)n2C2CCCCC2)c(C)n1CC(F)(F)F
IC50 (FFLUC_HILL_SLOPE 15.7, FFLUC_R_SQUARED 0.514, PBLUC_HILL_SLOPE 7.31, PBLUC_R_SQUARED 0.494, read-out: LUCIFERASE INFECTION ASSAY - IC50): 8.44 µM
IC90: > 10 µM

CCOC(=O)c1ccc(N2C(=O)c3ccccc3C(C=NNC(=O)c3ccoc3C)C2=O)c(Cl)c1 (stereo not drawn)
IC50 (HEPG2TOX_HILL_SLOPE 6.47, HEPG2TOX_R_SQUARED 0.622, PBLUC_HILL_SLOPE 28.4, PBLUC_R_SQUARED 0.423, read-out: LUCIFERASE INFECTION ASSAY - IC50): 9.76 µM
IC90: > 10 µM

CCCCNC(=O)c1c(NC(=O)c2ccccc2F)nc2ccc(C)cn12
IC50 (FFLUC_HILL_SLOPE 17.2, FFLUC_R_SQUARED 0.157, HEPG2TOX_HILL_SLOPE 8.23, HEPG2TOX_R_SQUARED 0.602, PBLUC_HILL_SLOPE 11.7, PBLUC_R_SQUARED 0.726, read-out: LUCIFERASE INFECTION ASSAY - IC50): 2.94 µM
IC90: 3.54 µM

Cc1ccc(C(=O)Nc2nc(-c3ccccn3)cs2)cc1S(=O)(=O)N1CCOCC1
IC50 (HEPG2TOX_HILL_SLOPE 1.67, HEPG2TOX_R_SQUARED 0.851, PBLUC_HILL_SLOPE 9.71, PBLUC_R_SQUARED 0.0304, read-out: LUCIFERASE INFECTION ASSAY - IC50): 7.83 µM
IC90: 9.81 µM

Cc1nc(C(F)(F)F)nc(NCc2ccc(Cl)cc2)c1C
IC50 (PBLUC_HILL_SLOPE 1.61, PBLUC_R_SQUARED 0.626, read-out: LUCIFERASE INFECTION ASSAY - IC50): 3.42 µM
IC90: > 10.5 µM

CS(=O)(=O)N1CCCc2cc(C(=O)Nc3[nH]nc4ccccc34)ccc21
IC50 (PBLUC_HILL_SLOPE 1.05, PBLUC_R_SQUARED 0.487, read-out: LUCIFERASE INFECTION ASSAY - IC50): 4.21 µM
IC90: > 10 µM

Cc1nc(-c2cccc(NC(=O)c3ccc(OC(F)F)cc3)c2)[nH]c1C
IC50 (PBLUC_HILL_SLOPE 207, PBLUC_R_SQUARED 0.671, read-out: LUCIFERASE INFECTION ASSAY - IC50): 2.66 µM
IC90: 2.68 µM

CN(C)c1ccccc1-c1cn2c(-c3ccc4c(ccn4C)c3)cnc2cn1
IC50 (FFLUC_HILL_SLOPE 0.352, FFLUC_R_SQUARED 0.0452, HEPG2TOX_HILL_SLOPE 0.416, HEPG2TOX_R_SQUARED 0.805, PBLUC_HILL_SLOPE 0.654, PBLUC_R_SQUARED 0.684, read-out: LUCIFERASE INFECTION ASSAY - IC50): 0.043 µM
IC90: 1.24 µM

CNC(=O)c1ccc(CN(C2CC2)S(=O)(=O)c2ccc(C(F)(F)F)cc2)cc1
IC50 (PBLUC_HILL_SLOPE 1.42, PBLUC_R_SQUARED 0.391, read-out: LUCIFERASE INFECTION ASSAY - IC50): 3.3 µM
IC90: > 10 µM

CN(C)c1ccc(/C=c2\s/c(=C\C#N)n(CC(=O)c3ccccc3)c2=O)cc1
IC50 (FFLUC_HILL_SLOPE 120, FFLUC_R_SQUARED 0.489, HEPG2TOX_HILL_SLOPE 0.599, HEPG2TOX_R_SQUARED 0.179, PBLUC_HILL_SLOPE 1.11, PBLUC_R_SQUARED 0.152, read-out: LUCIFERASE INFECTION ASSAY - IC50): 5.8 µM
IC90: > 10 µM

O=C(Nc1ccccc1)ON=C1CC2CCCC(C1)N2Cc1ccccc1
IC50 (PBLUC_HILL_SLOPE 1.59, PBLUC_R_SQUARED 0.239, read-out: LUCIFERASE INFECTION ASSAY - IC50): > 9.08 µM
IC90: > 9.08 µM

COc1ccc(-n2ncc(N3CCC(=O)CC3)c(Cl)c2=O)cc1
IC50 [1]: > 9.89 µM
IC90: > 9.89 µM

O=C(NCC12CC3CC(CC(C3)C1)C2)c1ccc2ccccc2c1
IC50 [1]: > 10 µM
IC90: > 10 µM

Cc1cc(C(=O)NNC(=O)c2ccc3ccccc3n2)c2cnn(Cc3cccs3)c2n1
IC50 (HEPG2TOX_HILL_SLOPE 8.79, HEPG2TOX_R_SQUARED 0.448, PBLUC_HILL_SLOPE 5.17, PBLUC_R_SQUARED 0.697, read-out: LUCIFERASE INFECTION ASSAY - IC50): 5.99 µM
IC90: 9.16 µM

N#Cc1cnc2c(Cl)cc(F)cc2c1Cl
IC50 [1]: > 10 µM
IC90: > 10 µM

CCOc1ccc(/C=C(/C(=O)NCc2ccc(F)cc2)c2nc3ccccc3[nH]2)cc1
IC50 (PBLUC_HILL_SLOPE 89.9, PBLUC_R_SQUARED 0.419, read-out: LUCIFERASE INFECTION ASSAY - IC50): 5.67 µM
IC90: 5.81 µM

Cc1cccc(-c2nn(-c3ccccc3)cc2/C=C2\CCn3c2nc2cc(Cl)ccc2c3=O)c1
IC50 (FFLUC_HILL_SLOPE 2.22, FFLUC_R_SQUARED 0.239, read-out: LUCIFERASE INFECTION ASSAY - IC50): > 10 µM
IC90: > 10 µM

O=C(Nc1nc2ccccn2c1C(=O)NC1CCCC1)c1c(F)cccc1F
IC50 (PBLUC_HILL_SLOPE 3.61, PBLUC_R_SQUARED 0.639, read-out: LUCIFERASE INFECTION ASSAY - IC50): 6.29 µM
IC90: > 8.59 µM

Cc1nc(NCc2ccco2)c2c(C)c(C)sc2n1
IC50 [1]: 3.73 µM
IC90: 4.47 µM

Cc1c(C(=O)C(F)(F)F)c(-c2nn(-c3ccccc3)c(NC(=O)C(F)(F)F)c2C(=O)C(F)(F)F)c(C)n1-c1ccc(Br)cc1
IC50 (FFLUC_HILL_SLOPE 15.1, FFLUC_R_SQUARED 0.397, PBLUC_HILL_SLOPE 2.07, PBLUC_R_SQUARED 0.0694, read-out: LUCIFERASE INFECTION ASSAY - IC50): 6.64 µM
IC90: > 10 µM

COc1ccccc1NC(=O)C(=Cc1ccc(N2CCCC2)c([N+](=O)[O-])c1)C(=O)Nc1ccccc1OC
IC50 [1]: > 10 µM
IC90: > 10 µM

CC(C)Cc1ccc(C(=O)CC(Sc2ccccc2N)c2ccc(C(F)(F)F)cc2)cc1 (stereo not drawn)
IC50 (FFLUC_HILL_SLOPE 10.1, FFLUC_R_SQUARED 0.429, PBLUC_HILL_SLOPE 1.99, PBLUC_R_SQUARED 0.752, read-out: LUCIFERASE INFECTION ASSAY - IC50): 0.15 µM
IC90: 0.452 µM

O=C(C1CCC1)N1CCN(Cc2ccc(-c3ccc(Cl)cc3)s2)CC1
IC50 (HEPG2TOX_HILL_SLOPE 1.83, HEPG2TOX_R_SQUARED 0.819, PBLUC_HILL_SLOPE 1.76, PBLUC_R_SQUARED 0.701, read-out: LUCIFERASE INFECTION ASSAY - IC50): 4.2 µM
IC90: > 10 µM
